# Columns and labels:
# [1] = test system: estrogen-regulated genes in VE-ERα cells; assay: Multigene RNase protection assay (RPA) with VE-ERα cells; assay type: cell-based, human; details: for effect on basal gene expression / induction of expression of estrogen-regulated genes: 5 dose 0.1 nM-1000 nM for 24 hours
# Description: Another preferred assay is an RNase protection assay (RPA), which can be used to examine a panel of genes identified as estrogen-regulated in VE-ERα cells. The RPA is described in Gilman, 1993, In Current Protocols in Molecular Biology, Vol. 1 (Ausubel, F. M., R. Brent, R, E. Kingston, D. D. Moore, J. G. Seidman, J. A. Smith and K. Stuhl, eds.) pp. 4.7.1-4.7.8, John Wiley and Sons, Inc., New York, incorporated herein by reference in its entirety. Within this assay, which may be performed according to standard protocols, multiple probes can be used in a single reaction that requires as little as 1 μg of total RNA, resulting in high information content and a molecule profile for each compound on ERα. regulated gene expression in vascular endothelial cells. The RPA assay is very sensitive and is therefore able to detect low copy messages and distinguish low fold modulations typical of estrogen. This approach has a number of advantages over a reporter assay. The endogenous genes in the multigene assay will contain all endogenous gene regulatory elements and will not be restricted to activation occurring through an ERE element. Since VE-ERα cells are human cells that have been characterized and determined to maintain endothelial specific phenotypic markers and functions, tissue selective ER regulation can be investigated.
# An RNase protection assay (RPA) was used to examine a panel of genes identified as estrogen-regulated in VE-ERα cells.
# (§1) In a further experiment, compounds known to have estrogen-like activity based on ER binding and ERE transactivation (ERE luciferase reporter in Chinese hamster ovary cells expressing transfected ERα) were evaluated. […] In order to confirm that these active compounds were working in an ER dependent manner, VE103-ERα cells were treated with a single dose of compound and increasing doses of ICI 164,384. […] All results are presented as percent of estrogen. PGI2 synthase numbers were based on EC50 from a 5-point dose response like that shown for estrogen in FIG. 5.
# [2] = test system: ERE luciferase reporter in Chinese hamster ovary cells expressing transfected ERα; assay: ERE transactivation (ERE luciferase reporter in Chinese hamster ovary cells expressing transfected ERα); assay type: cell-based
# Experimental: as §1
# [3] = test system: cyclin A1 in Endometrial epithelial cells; assay: Cyclin A1 expression and induction, endometrial epithelial cells; assay type: cell-based; design: key: (+) indicates detectable cyclin A1; (−) indicates no detectable cyclin A1 expression; details: immortalized human cells
# Description: (§2) Cyclin A1 expression and the effect of estradiol on expression in a number of immortalized and primary cells lines was further evaluated as described above.
# VE-ERα cells = assay: Incyte UniGEM estrogen regulated gene profile of VE-ERα cells; assay type: cell-based, human; details: VE-ERα cells treated for 6 hours vs ethanol
# Experimental: The Incyte UniGEM technology was used to survey a large panel of genes and to establish the estrogen regulated gene profile of the VE-ERα cells. VE-ERα cells were treated for 6 hours with 17-β estradiol or vehicle control (ethanol). Poly (A) RNA was isolated and this RNA was used to synthesize Cy3 or Cy5 labeled cDNA for simultaneous probing of Incyte UniGem V. Reciprocal labeling was done and two UniGems were probed (for one GEM the estradiol probe was labeled with Cy3 and ethanol probe with Cy5 and this labeling was reversed for the second GEM). UniGem V contains approximately 8500 human sequences including both known genes and ESTs. More than 20 genes were identified which were regulated more than 2 fold on both UniGEMs (Table I, indicated as UniGem. The sequence indicated in Table I with RF were identified by RNA fingerprinting, a more stringent version of differential display. RNA fingerprinting is based upon the use of arbitrary primers and primer combinations to carry out PCR amplifications from cDNA populations derived from cells or tissues of interest. The process generates a series of radioactively-labeled fragments which can be resolved by PAGE and visualized by autoradiography. (Mathieu-Daude, et al. Methods Enzymol 1999;303:309; Stone, et al., Nucleic Acids Res 1994 Jul 11;22(13):2612-8.)
# [4] = test system: cyclin A1 in Primary vascular smooth muscle cells; assay: Cyclin A1 expression and induction, primary vascular smooth muscle cells; assay type: cell-based; design: key: (+) indicates detectable cyclin A1; (−) indicates no detectable cyclin A1 expression
# Description: as §2
# cyclin A1 in Osteoblasts = assay: Cyclin A1 expression and induction, osteoblasts; assay type: cell-based; design: key: (+) indicates detectable cyclin A1; (−) indicates no detectable cyclin A1 expression; details: immortalized human cells
# Description: as §2
# [5] = test system: cyclin A1 in MCF-7 (mammary cancer cell line); assay: Cyclin A1 expression and induction, MCF-7; assay type: cell-based; design: key: (+) indicates detectable cyclin A1; (−) indicates no detectable cyclin A1 expression
# Description: as §2
# [6] = test system: cyclin A1 in Vascular smooth muscle cells; assay: Cyclin A1 expression and induction, vascular smooth muscle cells; assay type: cell-based; design: key: (+) indicates detectable cyclin A1; (−) indicates no detectable cyclin A1 expression; details: immortalized human cells
# Description: as §2
# [7] = test system: cyclin A1 in Primary vascular endothelial cells; assay: Cyclin A1 expression and induction, primary vascular endothelial cells; assay type: cell-based; design: key: (+) indicates detectable cyclin A1; (−) indicates no detectable cyclin A1 expression
# Description: as §2
# [8] = test system: prostacyclin I2 synthase in VE-ERα cells; assay: Estrogen treatment time course, RNase protection analysis of prostacyclin I2 synthase in VE-ERα cells; assay type: cell-based, human; details: at 24 hours
# Experimental: This step is not necessary with genes identified by the UniGem where an estrogen treatment time course was performed. RNA was isolated and RNase protection analysis was used to determine estrogen responses (FIG. 2). All 20 of the genes examined were confirmed to be regulated to a higher fold modulation at 24 hours than the 6 hours used for the UniGem experiment.
# The genes identified were relevant genes for vascular endothelial cells and in some cases consistent with the known effects of estrogen in the cardiovascular system. […] This enzyme is required for that last step in the synthesis of prostacyclin (PGI2). […] Another relevant gene was natriuretic peptide receptor B (NPR-B) which is the receptor for C-type natriuretic peptide (CNP), an endothelium dependent vasodilator.
# [9] = test system: cyclin A1 in ERα-enhanced vascular endothelial cells; assay: Cyclin A1 RNase protection, ERα-enhanced vascular endothelial cells; assay type: cell-based, human; details: for cyclin A1 mRNA (in words): ERα-enhanced cells, 100 nM E2, 1 μM ICI 164384, 10 nM DES
# Experimental: RNA was prepared using standard methods and RNase protection experiments were performed to evaluate the time course of cyclin A1 induction.
# (§3) In a similar experiment, RNase protection assays were performed using estrogen receptor α- and estrogen receptor β-enhanced vascular endothelial cells. […] The results are presented in FIGS. 4A and 5B, which show the levels of various cyclins in estrogen receptor α- and estrogen receptor β-enhanced cells, respectively. Arrows indicate mRNA for each indicated cyclin. […] Cyclin A1 is the only cyclin in the panel increased by estradiol treatment.
# as §2
# [10] = test system: VEGF mRNA in VE-ERα cells; assay: VEGF mRNA expression in VE-ERα cells by RNAse protection analysis; assay type: cell-based, human; details: VE-ERα cells treated with estrogen; RNAse protection analysis (FIG. 1, 100 nM)
# Experimental: Estrogen receptor α (ERα)-enhanced vascular endothelial cells were prepared by infecting primary vascular endothelial cells with a retrovirus expressing human papillomavirus E6/E7, which leads to cellular immortalization. The retrovirus expression vector LXSN16E6E7 contains the immortalizing oncogenes E6 and E7 from human papilloma virus type 16 and a neomycin resistance gene. (Halbert, C. L., Demers, F. W., and Galloway, D. A. 1991. J Virol. 65: 473-478 (1)). This vector was transfected into PA317 cells, an amphotrophic packaging cell line, by calcium phosphate precipitation. Stably clonal lines were established by G418 selection. A negative control line expressing the empty retrovirus LXSN was established. Viruses produced by the clonal lines of PA317 were used to infect second passage primary human aortic endothelial cells obtained from Cell Applications, Inc., San Diego, Calif. Following infection and selection with G418, the LXSN infected cells ceased growth after approximately 7 passages where the LXSN16E6E7 infected cells were growth extended beyond 20 passages.
# The cells expressed the expected endothelial markers. The levels of ERα were increased by infection of the cells with a retrovirus that expresses recombinant ERα (Green, S. et al, Nature 1986 320: 134-137). […]
# [11] = test system: cyclin A1 in ERβ-enhanced vascular endothelial cells; assay: Cyclin A1 RNase protection, ERβ-enhanced vascular endothelial cells; assay type: cell-based, human; details: 100 nM E2, 1 μM ICI 164384, 10 nM DES
# Experimental: as §3, §2
# [12] = test system: cyclin A1 in Vascular endothelial cells; assay: Cyclin A1 expression and induction, vascular endothelial cells; assay type: cell-based; design: key: (+) indicates detectable cyclin A1; (−) indicates no detectable cyclin A1 expression; details: immortalized human cells
# Description: as §2
# MCF-7 cells = assay: Estrogen regulation of marker genes in MCF-7 cells; assay type: cell-based
smiles,measurement,setting,value
O=C(c1ccc(OCCN2CCCCC2)cc1)c1c(-c2ccc(O)cc2)sc2cc(O)ccc12 [Raloxifene],effect on basal gene expression,[1],repressing rather than inducing gene expression
same,induction of expression of estrogen-regulated genes,[1],showed no clear induction of any of the genes
C[C@]12CC[C@@H]3c4ccc(O)cc4CC[C@H]3[C@@H]1CC[C@@H]2O [17-β-estradiol],ERE transactivation,[2],100% of estrogen
same,"Cyclin A1 expression, Estradiol",[3],+
same,regulation of more than 20 genes on both UniGEMs,VE-ERα cells,more than 2 fold
same,"Cyclin A1 expression, Estradiol",[4],−
same,"Cyclin A1 expression, Estradiol",cyclin A1 in Osteoblasts,−
same,"Cyclin A1 expression, Estradiol",[5],−
same,"Cyclin A1 expression, Estradiol",[6],−
same,"Cyclin A1 expression, Estradiol",[7],+
same,induction of expression of estrogen-regulated genes,[1],induced expression
same,PG I2 synthase,"[1]; VE-ERα Cells, based on EC50 from a 5-point dose response",100% of estrogen
same,prostacyclin I2 synthase upregulation,[8],4 fold
same,time to increase of cyclin A1 mRNA,[9]; 100 nM 17-β-estradiol vs 0.1% ethanol,≤ 3 h
same,cyclin A1 mRNA (in words),[9],induction of cyclin A1 mRNA can occur
same,expression of vascular endothelial growth factor (VEGF) mRNA,[10],increased three fold
same,cyclin A1 mRNA (in words),[11],induction of cyclin A1 mRNA can occur
same,"Cyclin A1 expression, Estradiol",[12],+
same,"regulation of ATP sulfurylase/APS kinase, podocalyxin",MCF-7 cells,found to be regulated by estrogen
same,regulation of clusterin,MCF-7 cells,not regulated by estrogen in a similar fashion
same,regulation of prostacyclin I2 synthase and natriuretic peptide receptor B (NPR-B),MCF-7 cells,not regulated by estrogen
"CC/C(=C(/CC)c1ccc(O)cc1)c1ccc(O)cc1 [DES, diethylstilbestrol]",cyclin A1 mRNA (in words),[9],mimics the estradiol effect
same,cyclin A1 mRNA (in words),[11],mimics the estradiol effect
"CCCCN(C)C(=O)CCCCCCCCCC[C@@H]1Cc2cc(O)ccc2[C@H]2CC[C@]3(C)[C@@H](O)CC[C@H]3[C@H]12 [ICI 164,384]",effect on basal gene expression,[1],lowered basal expression of some genes at higher concentrations
same,induction of expression of estrogen-regulated genes,[1],showed no induction of gene expression
same,inhibition of gene activation by active compounds,"[1]; VE103-ERα cells, single dose of compound and increasing doses of ICI 164,384",able to inhibit competitively the activation of these genes
same,cyclin A1 mRNA (in words),[9],inhibits this response
same,cyclin A1 mRNA (in words),[11],inhibits this response
CC/C(=C(\c1ccccc1)c1ccc(OCCN(C)C)cc1)c1ccccc1 [tamoxifen],induction of expression of estrogen-regulated genes,[1],showed no clear induction of any of the genes

# — patent US20030054332A1, “Markers for evaluating estrogenic activity” (priority 2001, published 2003)
